Experimental data taken from PubChem BioAssay (NCI).
Where “and” joins values, the source holds several entries; their conditions need not be identical. Equal entries are not always repeated.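 Cells were grown in 96-well plates and exposed to each compound for 48 hours at five concentrations; endpoints were interpolated linearly between bracketing concentrations, or set to the highest concentration if not reached. The concentration for 50% growth inhibition is given as GI50. TGI is the concentration that stops growth completely.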

What was measured:
Test in all cases: inhibition of tumour cell growth, NCI panel, 48 h
UO-31 renal = tested on: UO-31 renal
SK-OV-3 ovarian = tested on: SK-OV-3 ovarian
UACC-62 melanoma = tested on: UACC-62 melanoma
HCT-116 colon = tested on: HCT-116 colon
NCI-H226 lung = tested on: NCI-H226 lung
HT29 colon = tested on: HT29 colon
OVCAR-5 ovarian = tested on: OVCAR-5 ovarian
NCI-H460 lung = tested on: NCI-H460 lung
OVCAR-8 ovarian = tested on: OVCAR-8 ovarian
786-0 renal = tested on: 786-0 renal

Structure (SMILES)	TGI (UO-31 renal)	TGI (SK-OV-3 ovarian)	TGI (UACC-62 melanoma)	TGI (HCT-116 colon)	TGI (NCI-H226 lung)	TGI (HT29 colon)	TGI (OVCAR-5 ovarian)	TGI (NCI-H460 lung)	TGI (OVCAR-8 ovarian)	TGI (786-0 renal)	GI50 (UO-31 renal)	GI50 (SK-OV-3 ovarian)	GI50 (UACC-62 melanoma)	GI50 (HCT-116 colon)	GI50 (NCI-H226 lung)	GI50 (HT29 colon)	GI50 (OVCAR-5 ovarian)	GI50 (NCI-H460 lung)	GI50 (OVCAR-8 ovarian)	GI50 (786-0 renal)
COc1ccc(NC(=O)/C(N=O)=C(/C)O)cc1	> 100 µM	> 100 µM	> 100 µM	> 100 µM	> 100 µM	> 100 µM	> 100 µM	53.5 µM	> 100 µM	> 100 µM										
C=CCc1cccc(/C=N/NC(=O)CN2CCN(Cc3ccccc3)CC2)c1O	7.38 µM	17.8 µM	12.8 µM	13.8 µM	14 µM	13.7 µM	18.1 µM	11.6 µM	17.6 µM	12.1 µM	1.15 µM	2.88 µM	3.28 µM	1.71 µM	2.64 µM	3.24 µM	4.46 µM	1.41 µM	2.08 µM	2.04 µM
CCOC(=O)C(=Cc1cccc(Cl)c1)C(=O)OCC	4.12 µM	22.4 µM	3.58 µM	3.83 µM	6.18 µM	5.57 µM	3.54 µM	12.6 µM	12.8 µM	4.26 µM	1.84 µM	10.6 µM	1.65 µM	1.82 µM	2.49 µM	2.39 µM	1.8 µM	3.71 µM	3.37 µM	1.93 µM
Cn1cnc([N+](=O)[O-])c1S(=O)(=O)Oc1ccccc1	3.47 µM	> 100 µM	32.2 µM	13.2 µM	60 µM	8.21 µM	74.9 µM	> 72.8 µM	> 92.7 µM	55.6 µM	1.68 µM	97.5 µM	14.9 µM	5.37 µM	19.8 µM	3.14 µM	23.9 µM	23.9 µM	22.6 µM	25.1 µM
Cc1ccc(S(=O)(=O)N/N=C/c2oc(-c3ccncc3)c(-c3ccncc3)c2[N+](=O)[O-])cc1	> 100 µM	> 100 µM	> 100 µM	> 100 µM	> 100 µM	> 100 µM	> 100 µM	> 100 µM	> 100 µM	> 100 µM										
O=C(NCCCCN=c1cccccc1NCCCCNC(=O)OCc1ccccc1)OCc1ccccc1	21.4 µM	45.5 µM	37.5 µM	25 µM	32.1 µM	18.7 µM	41.9 µM	26.4 µM	47.7 µM	31.8 µM										
CC1=C2CCCC2=C/C(=N/Nc2ccc([N+](=O)[O-])cc2[N+](=O)[O-])CC1	> 100 µM	> 100 µM	> 100 µM	> 100 µM	> 100 µM	> 100 µM	> 100 µM	> 100 µM	> 100 µM	> 100 µM										
Cc1nc2ccccc2nc1-c1ccc(N=[N+]([O-])c2ccc(-c3nc4ccccc4nc3C)cc2)cc1	> 100 µM	> 82.5 µM	> 100 µM	> 100 µM	> 100 µM	> 100 µM	> 100 µM	> 100 µM	> 100 µM	> 100 µM										
O=[N+]([O-])c1ccc(-n2nnc(C3=NCCN3)c2-c2ccc(Cl)cc2)cc1	> 100 µM	> 100 µM	> 100 µM	> 100 µM	> 100 µM	> 100 µM	> 100 µM	> 100 µM	> 100 µM	> 100 µM										
CCN1CCN=c2c3cc(OC)ccc3n3cnc4ccc1c2c43	0.385 µM	1.79 µM	0.975 µM	0.194 µM	0.718 µM	1.01 µM	0.929 µM	0.308 µM	1.4 µM	0.394 µM										
COc1cc(-c2nn(-c3cccc(NC(=O)Nc4ccc(Cl)c(Cl)c4)c3)cc2-c2ccncc2)ccc1Cl	4.96 µM	> 50 µM	1.86 µM	> 50 µM	> 50 µM	6.46 µM	> 50 µM	> 50 µM	3.61 µM	4.48 µM	0.845 µM	1.93 µM	0.773 µM	1.21 µM	1.35 µM	1.24 µM	2.13 µM	1.11 µM	0.931 µM	1.31 µM
O=c1cc2oc3cc(O)c(O)cc3c(-c3ccccc3O)c-2cc1O	> 100 µM	> 100 µM	86 µM	21.9 µM	> 100 µM	> 100 µM	> 100 µM	82.6 µM	> 100 µM	37.2 µM	3.3 µM	7.65 µM	6.25 µM	3.81 µM	14.4 µM	44.4 µM	44.6 µM	21.5 µM	16 µM	6.32 µM
Cc1nc2cnc(N)c(C#Cc3cncc(C(=O)Nc4ccc(CN5CCN(C)CC5)c(C(F)(F)F)c4)c3)c2nc1C	5.67 µM	9.15 µM	1.07 µM	1.57 µM	2.61 µM	2.72 µM	11 µM	11.7 µM	13.8 µM	14.8 µM	1.28 µM	1.63 µM	0.116 µM	0.219 µM	0.188 µM	0.0456 µM	0.304 µM	0.478 µM	1.43 µM	2.58 µM
N=c1ccn2c(n1)OC1C(O)C(CO)OC12 (centres undefined)	> 1000 µM	> 696 µM	212 µM and > 100 µM	> 1000 µM	> 719 µM	> 1000 µM	380 µM and > 100 µM	168 µM and > 100 µM	> 1000 µM	> 1000 µM	3.08 µM and 0.355 µM	5.43 µM	1.55 µM	0.164 µM	120 µM and > 79 µM	6.23 µM		0.242 µM	0.481 µM	0.652 µM
O=C(c1ccc(F)c(F)c1Nc1ccc(I)cc1F)N1CC(O)([C@@H]2CCCCN2)C1	13.8 µM and > 10 µM	20.6 µM and > 10 µM	< 0.0158 µM and 0.0384 µM	11.9 µM and > 10 µM	23.3 µM and > 10 µM	11 µM and > 10 µM	15.1 µM and > 10 µM	17.9 µM and > 10 µM	24.5 µM and > 10 µM	20.6 µM and > 10 µM	0.0596 µM and 0.538 µM	5.46 µM and 3.26 µM	< 0.01 µM and 0.00339 µM	< 0.0295 µM and 0.0851 µM	1.91 µM and 1.24 µM	< 0.01 µM and 0.00367 µM	< 0.0277 µM and 0.0403 µM	2.92 µM and 2.42 µM	10.5 µM and > 10 µM	5.74 µM and 3.82 µM
